Test: excess molar enthalpy (molar enthalpy of mixing); xn = mol fraction of the nth substance listed
Settings: 100 kPa, Liquid, isothermal titration calorimetry

CCCCCCOCC [1-ethoxyhexane] + CC#N
Settings	excess molar enthalpy [kcal/mol]
298.15 K, x2 = 0.0307	0.028
298.15 K, x2 = 0.0596	0.0608
298.15 K, x2 = 0.0868	0.0887
298.15 K, x2 = 0.1125	0.112
298.15 K, x2 = 0.1368	0.132
298.15 K, x2 = 0.1816	0.166
298.15 K, x2 = 0.222	0.192
298.15 K, x2 = 0.2586	0.212
298.15 K, x2 = 0.2919	0.228
298.15 K, x2 = 0.3223	0.241
298.15 K, x2 = 0.3759	0.26
298.15 K, x2 = 0.4217	0.271
298.15 K, x2 = 0.4612	0.278
298.15 K, x2 = 0.5038	0.282
298.15 K, x2 = 0.5401	0.283
298.15 K, x2 = 0.5715	0.282
298.15 K, x2 = 0.5988	0.279
298.15 K, x2 = 0.6274	0.275
298.15 K, x2 = 0.6521	0.27
298.15 K, x2 = 0.6738	0.265
298.15 K, x2 = 0.6959	0.258
298.15 K, x2 = 0.7006	0.255
298.15 K, x2 = 0.7152	0.251
298.15 K, x2 = 0.7222	0.247
298.15 K, x2 = 0.7322	0.245
298.15 K, x2 = 0.7452	0.238
298.15 K, x2 = 0.7473	0.239
298.15 K, x2 = 0.7608	0.232
298.15 K, x2 = 0.7698	0.226
298.15 K, x2 = 0.796	0.212
298.15 K, x2 = 0.8241	0.194
298.15 K, x2 = 0.8419	0.182
298.15 K, x2 = 0.8604	0.167
298.15 K, x2 = 0.8799	0.151
298.15 K, x2 = 0.9002	0.131
298.15 K, x2 = 0.9215	0.108
298.15 K, x2 = 0.9362	0.091
298.15 K, x2 = 0.9514	0.0718
298.15 K, x2 = 0.967	0.0504
298.15 K, x2 = 0.9832	0.0264
308.15 K, x2 = 0.0303	0.0333
308.15 K, x2 = 0.0588	0.0672
308.15 K, x2 = 0.0857	0.0959
308.15 K, x2 = 0.1111	0.121
308.15 K, x2 = 0.1352	0.142
308.15 K, x2 = 0.1795	0.177
308.15 K, x2 = 0.2196	0.204
308.15 K, x2 = 0.2559	0.226
308.15 K, x2 = 0.2889	0.242
308.15 K, x2 = 0.3192	0.256
308.15 K, x2 = 0.3726	0.275
308.15 K, x2 = 0.4182	0.287
308.15 K, x2 = 0.4577	0.294
308.15 K, x2 = 0.5002	0.298
308.15 K, x2 = 0.5366	0.299
308.15 K, x2 = 0.568	0.297
308.15 K, x2 = 0.5954	0.294
308.15 K, x2 = 0.6241	0.29
308.15 K, x2 = 0.6489	0.285
308.15 K, x2 = 0.6707	0.279
308.15 K, x2 = 0.6929	0.272
308.15 K, x2 = 0.7087	0.264
308.15 K, x2 = 0.7123	0.265
308.15 K, x2 = 0.7294	0.258
308.15 K, x2 = 0.73	0.256
308.15 K, x2 = 0.7446	0.251
308.15 K, x2 = 0.7526	0.246
308.15 K, x2 = 0.7582	0.245
308.15 K, x2 = 0.7767	0.233
308.15 K, x2 = 0.8023	0.217
308.15 K, x2 = 0.8297	0.198
308.15 K, x2 = 0.847	0.185
308.15 K, x2 = 0.8651	0.17
308.15 K, x2 = 0.884	0.152
308.15 K, x2 = 0.9037	0.132
308.15 K, x2 = 0.9243	0.108
308.15 K, x2 = 0.9385	0.0909
308.15 K, x2 = 0.9531	0.0718
308.15 K, x2 = 0.9683	0.0503
308.15 K, x2 = 0.9839	0.0263

Reference: the NIST ThermoML archive (doi:10.1021/acs.jced.5b00838)
